One molecule from publication PMC8398847, “Isavuconazole: Thermodynamic Evaluation of Processes Sublimation, Dissolution and Partition in Pharmaceutically Relevant Media” (Molecules, 2021) can be followed below.

Usually solubility stands for the dissolved amount per volume that the medium holds.

The nature of the series: Solubility by isothermal saturation (shake flask) method. Format: physicochemical. As to the method: Solubility of drug was measured by the classical shake flask method at five temperatures: 293, 298, 303, 308 and 313 ± 0.2 K. This method determines the concentration of a test substance in a saturated solution, i.e., in equilibrium with the solid phase at a strictly fixed temperature. The compound studied and the selected solvent were placed into glass ampoules and stirred in an air thermostat.
The solid phase was sedimentated after stirring within 2 h. Then, the solutions were centrifuged using a thermostatic centrifuge Biofuge Stratos (Thermo scientific, Germany) at the appropriate temperature of the experiment for 5 min. The solid phase was removed by filtration using a filter MILLEX®HA 0.22 μm (Millipore, Ireland). The resulting solution, if necessary, was diluted with an appropriate solvent and examined on a Carry 50 spectrophotometer (Varian, Palo Alto, CA, USA, Software Version 3.00 (339)) in the ultraviolet region of the spectrum (operating wavelength range λ = 200–400 nm) with an accuracy of 2–4%.
The experimental value of solubility is an average value of three independent experiments. The absorption maximums for isavuconazole in the selected solvents have been determined at 274 nm in buffers solutions (Figure 4) and as 283 nm in hexane and alcohols (Figure S8). The calibration was carried out at room temperature using the solutions with known concentrations of drug in selected solvents.
The mole fraction concentration was calculated based on molarity (S, mol·L^−1) using Equation (8):(8) x=M2S/S(M2−M1)+1000ρ, where M1 and M2 are the molar masses of […], respectively, and ρ (g·cm^−3) is the density of the pure solvents. Densities of buffers solutions (pH 1.2, 2.0 and 7.4) were measured using densitometer DMA 4500 (Anton Paar, Austria) and published earlier. The values of densities using for conversion are given in Table S4 (Supporting Information).

Each structure is given as a SMILES string. Values after ≈ are worked out from the molar mass of the structure shown. Like-named read-outs stand apart in the source and are kept apart here.

With `C[C@@H](c1nc(-c2ccc(C#N)cc2)cs1)[C@](O)(Cn1cncn1)c1cc(F)ccc1F` [IVZ, Isavuconazole], the solubility is, setting by setting: (aqueous buffer solutions, pH 7.4, buffers pH 7.4, 2.0, 1.2, 298.15 K, read-out: solubility in aqueous buffer solutions) 8.13 to 42.4 µM (≈ 3.56 to 18.5 µg/mL); (buffer pH 7.4, pH 7.4, aqueous buffer, thermodynamic from solid, buffer pH 7.4, 293.15 K, read-out: solubility S·10^6) 6.67 µM (≈ 2.92 µg/mL); (buffer pH 7.4, pH 7.4, aqueous buffer, thermodynamic from solid, buffer pH 7.4, 298.15 K, read-out: solubility S·10^6) 8.13 µM (≈ 3.56 µg/mL); (buffer pH 7.4, pH 7.4, aqueous buffer, thermodynamic from solid, buffer pH 7.4, 303.15 K, read-out: solubility S·10^6) 10 µM (≈ 4.37 µg/mL); (buffer pH 7.4, pH 7.4, aqueous buffer, thermodynamic from solid, buffer pH 7.4, 308.15 K, read-out: solubility S·10^6) 12.2 µM (≈ 5.32 µg/mL); (buffer pH 7.4, pH 7.4, aqueous buffer, thermodynamic from solid, buffer pH 7.4, 313.15 K, read-out: solubility S·10^6) 14.5 µM (≈ 6.37 µg/mL). Further, the solubility (ethanol, 298.15 K, read-out: solubility) came out at 180000 µM (≈ 78700 µg/mL); the solubility (hexane, organic solvent or mixture, thermodynamic from solid, hexane, 293.15 K, read-out: solubility S·10^4) is 423 µM (≈ 185 µg/mL); the solubility (hexane, organic solvent or mixture, thermodynamic from solid, hexane, 298.15 K, read-out: solubility S·10^4) came out at 537 µM (≈ 235 µg/mL); the solubility (hexane, organic solvent or mixture, thermodynamic from solid, hexane, 303.15 K, read-out: solubility S·10^4) came out at 677 µM (≈ 296 µg/mL); the solubility (hexane, organic solvent or mixture, thermodynamic from solid, hexane, 308.15 K, read-out: solubility S·10^4) amounted to 847 µM (≈ 371 µg/mL); the solubility (hexane, organic solvent or mixture, thermodynamic from solid, hexane, 313.15 K, read-out: solubility S·10^4) was determined as 1050 µM (≈ 459 µg/mL). The solubility (seven solvents (buffers pH 1.2, 2.0, 7.4; hexane; alcohols), seven solvents, 293.15 to 313.15 K, read-out: solubility, span over solvents) fell in the range of 6.7 to 300000 µM (≈ 2.93 to 131000 µg/mL). For the same molecule, the “solubility in buffer pH 7.4 lower than in pH 1.2” value (buffer pH 7.4 vs pH 1.2) turned out to be 80%. Further, for the setting “buffer pH 7.4 vs pH 1.2”, the “solubility of uncharged forms in buffer pH 7.4 relative to ionized forms in buffer pH 1.2” value was “five times lower”.
